Reference: patent US20110071141A1, “Pesticidial Condensed-Ring Aryl Compounds” (Bayer CropScience AG, priority 2008, published 2011)
Like-named read-outs stand apart in the source and are kept apart here.

Tests used:
Type in all cases: in vivo
Spodoptera frugiperda = Spodoptera frugiperda test (spray application); conditions: 168 h, application rate 500 g/ha, sprayed maize leaf sections, larvae, 7 days
Excerpt: Solvent: 78.0 parts by weight acetone • 1.5 parts by weight dimethylformamide Wetting agent 0.5 parts by weight alkylarylpolyglcolether
To produce a suitable preparation of the active compound, 1 part by weight of active compound is mixed with the stated amount of solvent and emulsifier, and the concentrate is dilutes with emulsifier-containing water to the desired concentration.
Maize (Zea mais) leaf sections are sprayed with a preparation of the active ingredient of the desired concentration. Once dry, the leaf sections are infested with fall armyworm larvae (Spodoptera frugiperda). After 7 days, mortality in % is determined. 100% means that all caterpillars have been killed and 0% means that none of the caterpillars have been killed.

Musca domestica = assay: whole plant or invertebrate; conditions: 48 h, read-out: activity (mortality in %)
Method: (§1) Solvent: dimethyl sulfoxide
Prior to the assay, a piece or kitchen sponge is soaked with a mixture of sugar and compound solution and placed into a container. 10 adults (Musca domestica) are placed into the container and closed with a perforated lid. After 2 days, mortality in % is determined. 100% means that all the flies have been killed; 0% means that none of the flies have been killed.

Phaedon cochleariae = Phaedon cochleariae test (spray application); conditions: in Brassica rapa, foliar, 168 h, read-out: activity (mortality in %)
Method: Solvent: 78.0 parts by weight of acetone • • 1.5 parts by weight of dimethylformamide Emulsifier: 0.5 parts by weight of alkylaryl polyglycolether
To produce a suitable preparation of active compound, 1 part by weight of active compound is mixed with the stated amount of solvent and emulsifier, and the concentrate is diluted with emulsifier-containing water to the desired concentration. Chinese cabbage (Brassica pekinesis) leaf-disks are sprayed with a preparation of the active ingredient of the desired concentration. Once dry, the leaf disks are infested with mustard beetle larvae (Phaedon cochleariae).
After 7 days, mortality in % is determined. 100% means that all beetle larvae have been killed and 0% means that none of the beetle larvae have been killed.

Aulacophora femoralis = assay: whole plant or invertebrate; conditions: in Cucumis sativus, 168 h, read-out: mortality (control efficacy)
Excerpt: The test solution has been prepared as described in biological test example 1.
Cucumber leaves were immersed in a test solution that had been diluted to a predetermined concentration with water. The leaves were air-dried and then put in a plastic cup containing sterilized black soil. 5 Aulacophora femoralis second instar larvae were released in the cup.

Boophilus microplus [1] = assay: Boophilus microplus test (dip); conditions: Rhipicephalus microplus, 168 h, read-out: activity (mortality in %)
Method: as §1
Eight to ten adult engorged female Boophilus microplus ticks are placed in perforated plastic beakers and immersed in aqueous compound solution for one minute. Ticks are transferred to a filter paper in a plastic tray. Egg deposition of fertile eggs is monitored after. After 7 days, mortality in % is determined. 100% means that all the ticks have been killed; 0% means that none of the ticks have been killed.

Boophilus microplus [2] = assay: whole plant or invertebrate; conditions: Rhipicephalus microplus, 168 h, read-out: activity (mortality in %; 100% means all eggs infertile)
Method: as §1
Five adult engorged female ticks (Boophilus microplus) are injected with compound solution into the abdomen. Ticks are transferred into replica plates and incubated in a climate chamber for a period of time. Egg deposition of fertile eggs is monitored. After 7 days, mortality in % is determined. 100% means that all eggs are infertile; 0% means that all eggs are fertile.

Ctenocephalides felis = assay: whole plant or invertebrate; conditions: 48 h, read-out: activity (mortality in %)
Method: as §1
Approximately 10 to 15 adult unfed (Ctenocepahlides felis) are placed in flea chambers. […] The blood chamber is heated to 37° C. whereas the flea chamber is kept at room temperature. After 2 days, mortality in % is determined. 100% means that all the fleas have been killed; 0% means that none of the fleas have been killed.

Lucilia cuprina larvae = assay: whole plant or invertebrate; conditions: 48 h, read-out: activity (mortality in %)
Method: as §1
Approximately 20-30 (Lucilia cuprina larvae) are transferred into a test tube containing 1 cm^3 of minced horse meat and 0.5 ml aqueous dilution of test compound. After 2 days, mortality in % is determined.

Tetranychus urticae = assay: Test on Tetranychus urticae (spray test); conditions: active compound concentration 100 ppm; adult mites on pinto bean sprayed; 7 days
Method: The test solution has been prepared as described in biological test example 1. 50 to 100 adult Tetranychus urticae were placed on pinto bean leaves at true leaf stage having two main leaves that had been grown in a pot (6 cm diameter). After 1 day, a generous amount of the test solution which has been diluted with water to the predetermined concentration was sprayed thereto using a spray gun.
After keeping the pot in a green house for 7 days, acaricidal ratio was calculated. 100% means that all the mites have been killed; 0% means that none of the mites have been killed.

Structure (SMILES) | mortality at 100 ppm (Musca domestica) [%] | mortality at 100 ppm (Aulacophora femoralis) [%] | mortality at 0.02 mg (Boophilus microplus [2]) [%] | mortality at 100 ppm (Ctenocephalides felis; in Bos taurus) [%] | mortality at 100 ppm (Lucilia cuprina larvae; in Equus caballus) [%] | other results
O=C1OCc2cc(C3=NOC(c4cc(Cl)cc(Cl)c4)(C(F)(F)F)C3)ccc21 (centres unmarked) [Example 1-2, 5-[5-(3,5-dichlorophenyl)-5-(trifluoromethyl)-4,5-dihydroisoxazol-3-yl]-2-benzofuran-1(3H)-one] | ≥ 80 | 100 | ≥ 80 | ≥ 80 | ≥ 80 | mortality at 500 g/ha (Spodoptera frugiperda): ≥ 80%; mortality at 500 g/ha (Phaedon cochleariae): 80%; mortality at 100 ppm (Boophilus microplus [1]): ≥ 80%
O=C1c2ccc(C3=NOC(c4cc(Cl)cc(Cl)c4)(C(F)(F)F)C3)cc2CN1Cc1ccccn1 (centres unmarked) [Example 1-58] |  |  |  |  |  | mortality (acaricidal ratio) (Tetranychus urticae): at least 98%
FC(F)(F)C1(c2cc(Cl)cc(Cl)c2)CC(c2ccc3c(c2)COC3)=NO1 (centres unmarked) [Example 1-131, 5-(3,5-dichlorophenyl)-3-(1,3-dihydro-2-benzofuran-5-yl)-5-(trifluoromethyl)-4,5-dihydroisoxazole] | ≥ 80 | 100 | ≥ 80 | ≥ 80 | ≥ 80 | 
CC(=O)N1Cc2ccc(C3=NOC(c4cc(Cl)cc(Cl)c4)(C(F)(F)F)C3)cc2C1 (centres unmarked) [Example 1-151, 1-{5-[5-(3,5-dichlorophenyl)-5-(trifluoromethyl)-4,5-dihydroisoxazol-3-yl]-1,3-dihydro-2H-isoindol-2-yl}ethanone] |  | 100 | ≥ 80 |  | ≥ 80 | 
CC(=O)N1Cc2cc(C3=NOC(c4cc(Cl)cc(Cl)c4)(C(F)(F)F)C3)ccc2C1=O (centres unmarked) [Example 1-221, 2-acetyl-5-[5-(3,5-dichlorophenyl)-5-(trifluoromethyl)-4,5-dihydroisoxazol-3-yl]-2,3-dihydro-1H-isoindol-1-one] |  | 100 |  |  |  | 
N=C1OCc2cc(C3=NOC(c4cc(Cl)cc(Cl)c4)(C(F)(F)F)C3)ccc21 (centres unmarked) [Example 1-232, 5-[5-(3,5-dichlorophenyl)-5-(trifluoromethyl)-4,5-dihydroisoxazol-3-yl]-2-benzofuran-1(3H)-imine] | ≥ 80 | 100 | ≥ 80 | ≥ 80 | ≥ 80 | 
CC(=O)/N=C1\c2ccc(C3=NOC(c4cc(Cl)cc(Cl)c4)(C(F)(F)F)C3)cc2CN1Cc1ccccn1 (centres unmarked) [Example 1-235, N-[(1E)-5-[5-(3,5-dichlorophenyl)-5-(trifluoromethyl)-4,5-dihydroisoxazol-3-yl]-2-(pyridin-2-ylmethyl)-2,3-dihydro-1H-isoindol-1-ylinden]acetamide] | ≥ 80 |  | ≥ 80 | ≥ 80 | ≥ 80 | 
N#Cc1ccc2cc(C3=NOC(c4cc(Cl)cc(Cl)c4)(C(F)(F)F)C3)ccc2n1 (centres unmarked) [Example 1-255, 6-[5-(3,5-dichlorophenyl)-5-(trifluoromethyl)-4,5-dihydroisoxazol-3-yl]quinolin-2-carbonitrile] | ≥ 80 |  | ≥ 80 | ≥ 80 | ≥ 80 | 
CC(=O)NC1CCc2cc(C3=NOC(c4cc(Cl)cc(Cl)c4)(C(F)(F)F)C3)ccc21 (centres unmarked) [Example 3-3, N-{5-[5-(3,5-dichlorophenyl)-5-(trifluoromethyl)-4,5-dihydroisoxazol-3-yl]-2,3-dihydro-1H-inden-1-yl}acetamide] | ≥ 80 | 100 | ≥ 80 | ≥ 80 | ≥ 80 | mortality at 100 ppm (Boophilus microplus [1]): ≥ 80%
CCNC(=O)NC1CCc2cc(C3=NCC(c4cc(Cl)cc(Cl)c4)(C(F)(F)F)C3)ccc21 (centres unmarked) [Example 3-112, 1-{5-[3-(3,5-dichlorophenyl)-3-(trifluoromethyl)-3,4-dihydro-2H-pyrrol-5-yl]-2,3-dihydro-1H-inden-1-yl}-3-ethylurea] |  | 100 |  |  |  | mortality at 100 ppm (Musca domestica; application rate 100 ppm, adults, 2 days): ≥ 80%; mortality at 100 ppm (Boophilus microplus [1]; application rate 100 ppm, adult engorged female ticks immersed one minute, 7 days): ≥ 80%; mortality at 0.02 mg (Boophilus microplus [2]; application rate 20 μg/animal injected, adult engorged female ticks, 7 days): ≥ 80%; mortality at 100 ppm (Ctenocephalides felis; application rate 100 ppm in cattle blood, adult unfed fleas, 2 days): ≥ 80%; mortality at 100 ppm (Lucilia cuprina larvae; application rate 100 ppm, larvae in minced horse meat, 2 days): ≥ 80%
NC1CCCc2cc(C3=NOC(c4cc(Cl)cc(Cl)c4)(C(F)(F)F)C3)ccc21 (centres unmarked) [Example 3-211, 6-[5-(3,5-dichlorophenyl)-5-(trifluoromethyl)-4,5-dihydroisoxazol-3-yl]-1,2,3,4-tetrahydronaphthalen-1-amine] |  | 100 | ≥ 80 |  |  | 
CCNC(=O)N1CCc2cc(C3=NOC(c4cc(Cl)cc(Cl)c4)(C(F)(F)F)C3)ccc21 (centres unmarked) [Example 3-638, 5-[5-(3,5-dichlorophenyl)-5-(trifluoromethyl)-4,5-dihydroisoxazol-3-yl]-N-ethyl-2,3-dihydro-1H-indol-1-carboxamide] | ≥ 80 | 100 | ≥ 80 | ≥ 80 | ≥ 80 | 
